Results from ChEMBL document CHEMBL2073787, “Isolation of a family of organic anion transporters from human liver and kidney” (Biochem Biophys Res Commun, 2001).

Assays:
Assay type in all cases: functional, cell-based
[1] = biological target: T1, Solute carrier family 22 member 7 (Homo sapiens, UniProt Q9Y694); assay: TP_TRANSPORTER: uptake in OAT2-expressing EcR293 cells
T1 sequence (Q9Y694 whole entry): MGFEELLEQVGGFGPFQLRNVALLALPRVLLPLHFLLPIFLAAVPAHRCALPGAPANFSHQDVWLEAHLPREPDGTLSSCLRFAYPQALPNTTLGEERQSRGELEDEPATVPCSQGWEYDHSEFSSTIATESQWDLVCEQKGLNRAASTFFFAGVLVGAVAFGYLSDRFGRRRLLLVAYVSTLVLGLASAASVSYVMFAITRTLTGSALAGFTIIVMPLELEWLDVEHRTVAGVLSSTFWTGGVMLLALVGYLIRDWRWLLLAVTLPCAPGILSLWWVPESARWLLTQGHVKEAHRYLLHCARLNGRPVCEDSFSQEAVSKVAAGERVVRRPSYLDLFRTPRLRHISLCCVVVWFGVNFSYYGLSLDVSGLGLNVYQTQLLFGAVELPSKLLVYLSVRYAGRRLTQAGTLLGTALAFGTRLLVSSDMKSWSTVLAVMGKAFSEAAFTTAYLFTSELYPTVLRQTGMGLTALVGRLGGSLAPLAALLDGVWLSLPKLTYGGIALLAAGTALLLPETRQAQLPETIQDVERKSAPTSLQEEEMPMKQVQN

[2] = biological target: T1, Solute carrier family 22 member 7; assay: TP_TRANSPORTER: inhibition of PAH uptake (alpha-KG: 500 uM) in OAT2-expressing EcR293 cells; conditions: ecr293, 500 µM
[3] = biological target: T1, Solute carrier family 22 member 7; assay: TP_TRANSPORTER: inhibition of PAH uptake (BSP: 100 uM) in OAT2-expressing EcR293 cells; conditions: ecr293, 100 µM

Activity [1] | Activity [2] | Structure (SMILES) | Activity [3]
substrate [+] | is not an inhibitor [-] | O=C(O)CCC(=O)C(=O)O [ALPHA-KETOGLUTARIC ACID] | –
substrate [+] | – | Nc1ccc(C(=O)NCC(=O)O)cc1 [AMINOHIPPURIC ACID] | –
substrate [+] | – | CN(Cc1cnc2nc(N)nc(N)c2n1)c1ccc(C(=O)N[C@@H](CCC(=O)O)C(=O)O)cc1 [METHOTREXATE] | –
– | – | O=C1OC(c2ccc(O)c(S(=O)(=O)[O-])c2)(c2ccc(O)c(S(=O)(=O)[O-])c2)c2c(Br)c(Br)c(Br)c(Br)c21.[Na+].[Na+] [SULFOBROMOPHTHALEIN SODIUM] | inhibitor [+]
